{"source": "patent US9162992B2", "about": "“Compounds and compositions for treatment of breathing control disorders or diseases” (GALLEON PHARMACEUTICALS, INC., priority 2010, dated 2015)", "target": "T1, rat KCNK3/TASK-1 (Rattus norvegicus, UniProt O54912)", "T1 construct": "expressed in transfected cells; host or cells: CHO cells (tetracycline-inducible)", "T1 sequence (O54912 whole entry)": "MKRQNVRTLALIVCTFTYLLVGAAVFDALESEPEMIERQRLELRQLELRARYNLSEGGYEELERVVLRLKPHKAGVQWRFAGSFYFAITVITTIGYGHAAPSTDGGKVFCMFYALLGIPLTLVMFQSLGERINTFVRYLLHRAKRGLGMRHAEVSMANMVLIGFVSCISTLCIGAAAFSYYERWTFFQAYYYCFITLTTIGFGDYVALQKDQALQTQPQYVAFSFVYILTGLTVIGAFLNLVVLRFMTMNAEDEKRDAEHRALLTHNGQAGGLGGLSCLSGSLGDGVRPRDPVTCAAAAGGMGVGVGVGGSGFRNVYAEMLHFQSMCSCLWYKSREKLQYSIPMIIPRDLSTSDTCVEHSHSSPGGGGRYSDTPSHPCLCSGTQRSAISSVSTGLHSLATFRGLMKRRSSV", "experiment": "Thallium flux through rat TASK-1 (KCNK3-CHO cells)", "format": "cell-based", "settings": "Tl+ flux; 3 nM to 30 μM; read-out: rTASK-1 IC50", "method": "CHO cells expressing recombinant tetracycline-inducible rat KCNK3/TASK-1 (KCNK3-CHO cells) were plated in poly-D-lysine coated 384-well plates at a density of 6,000 cells/well (50 μl/well of 120,000 cells/mL) and allowed to incubate for 72 hrs in the presence of 5% CO2 and 1 μg/mL tetracycline at 30° C. HEK cells expressing recombinant tetracycline-inducible human KCNK9/TASK-3 (KCNK9-HEK cells) were plated at a density of 15,000 cells per well (50 μl/well, 300,000 cells/mL) and incubated overnight at 37° C. and 5% CO2 in the presence of 1 μg/mL tetracycline.\nDrug plates were generated from 10 mM 100% DMSO mother plates. Compounds were transferred to 384-well drug plates and titrated with sequential 1:3 dilutions in 100% DMSO for a total of 9 dilutions. A dilution plate is made by taking 2.4 μl from the mother plate and adding to […] of assay buffer for a 12% DMSO dilution plate. From this dilution plate, a final daughter plate is generated by taking 1 μA of the dilution plate and adding to 40 μA of assay buffer for a final DMSO concentration of 0.3%. Each compound was evaluated in duplicate and the concentration range evaluated was 3 nM to 30 μM.\nWhen thallium was added to extracellular solution with a stimulus to open channels, Tl^+ flowed down its concentration gradient into the cells and channel activity was detected with an indicator dye, FluxOR™, that increased in cytosolic fluorescence. The FluxOR™ indicator dye was loaded into cells as a membrane permeable acetoxymethyl ester. On the day of each assay, FluxOR™ assay buffer was made fresh from Hank's Balanced Saline Solution (HBSS) buffered with 20 mM HEPES and pH adjusted to 7.4 with NaOH. Dye loading solution was prepared per manufacturer's instructions, and 25 μl of dye solution applied to each well with a multidropper after plating medium was removed manually from cells. Dye was allowed to load for 90 minutes at room temperature in the dark.\nAfter the 90 min dye loading incubation and subsequent manual dye removal, 24 μl of the drug daughter plate was transfer to cell plates by a cybi-well system and then incubated at room temperature for 20 minutes to allow for equilibration within wells. Stimulation buffer was prepared from 5× chloride-free buffer, thallium, and potassium sulfate containing 5 times the desired final assay concentration of 10 mM K^+ 2.8 mM Tl^+. Cell plates were then transferred to an FDSS 6000 kinetic imaging plate reader (Hamamatsu). Fluorescence at 525 nm (excitation 488 nm) was measured for 10 seconds at 1 Hz to establish baseline for the entire plate. After baseline was established, 6 μl/well of stimulation buffer was added and fluorescence signal recorded for another 140 seconds.\nFrom the fluorescence signals in the absence and presence of Galleon compounds, Inhibitory concentration curves were plotted and IC50 values were estimated using a curve fitting algorithm."}
{"molecule": "CCCNc1nc(NCCC)nc(N(C)OC)n1.O=S(=O)(O)O", "note": "[XXXVI, N-(4,6-Bis-n-propylamino-[1,3,5]triazin-2-yl)-N,O-dimethyl-hydroxylamine hydrogen sulfate]", "values": [{"measurement": "IC50", "result": 25, "unit": "µM"}]}
